# Test system: GBS strains
# Experiment: Cell viability by intracellular ATP concentration after penicillin
# Assay type: cell-based, Group B Streptococcus
# Conditions: GBS strain A909 compared to NEM316 and O90R; 100×MIC90 Penicillin G 22 hours
# Experimental: GBS strains were cultured for 18 hours at 37° C. in THB. These cultures were used to inoculate fresh THB and subsequently allowed to grow to exponential phase (OD600 0.25-0.3) at 37° C. One (1) ml of culture was centrifuged at 5,000 g for 4 min. The cell pellet was re-suspended in ATP free water. Cellular ATP was extracted by using trichloroacetic acid (TCA) (5%) for 2 min. and subsequently neutralized with Tris-EDTA-0.1M NaOAc, pH 7.75 to 10×TCA volume. The initial (in.) cellular ATP concentration ([ATP]) was measured using the ENLITEN (Promega) luciferase based reaction kit. THB cultures then treated 100×MIC90 Penicillin G for 22 hours. The experimental (exp.) cellular ATP was extracted and the concentration was measured as stated above. Based on the calculations ([ATP] exp.)/([ATP] in./O.D. in.), differences in viability were equated with the change in [ATP].
# (I) Bacterial Strains and Culture Conditions. […] Cell cultures were allowed to re-grow for an additional 24 h at 37° C. before the OD600 was measured. […] The initial (in.) cellular ATP concentration ([ATP]) was measured using the ENLITEN (Promega) luciferase based reaction kit. […] The experimental (exp.) cellular ATP was extracted and the concentration was measured as stated above. […]
smiles,measurement,value
CC1(C)S[C@@H]2[C@H](NC(=O)Cc3ccccc3)C(=O)N2[C@H]1C(=O)O [Penicillin G],cellular [ATP] content (FIG. 3),significant lesser [ATP] content
